{"source": "patent US7834019B2", "about": "“Substituted pyrazolo[3,4-d]pyrimidinone derivatives” (Banyu Pharmaceutical Co., Ltd., priority 2006, dated 2010)", "key": {"[1]": {"system": "Cdc2 (Cdk1) tyrosine 15-phosphorylation", "experiment": "Cdc2 (Cdk1) tyrosine 15-phosphorylation-inhibitory effect in NCI-H1299 cells + camptothecin (ELISA)", "assay_type": "cell-based", "conditions": "Homo sapiens, camptothecin 200 nM for 16 hours, then test compound with nocodazole for 8 hours, read-out: Cdc2-Y15 Phosphorylation-Inhibitory Effect (H1299, + camptothecin) (EC50)", "from_the_text": "Pharmaceutical Text 2 (Method of Determining Drug Potency in Cells (Cdc2 (Cdk1) Tyrosine 15-Phosphorylation-Inhibitory Effect))\nFetal bovine serum (FBS) was obtained from Morgate; media RPMI1640 and DMEM were from Invitrogen; camptothecin was from Sigma; gemcitabine was from Nippon Eli Lilly; nocodazole and protease inhibitor cocktail were from Sigma; rabbit anti-Cdc2 antibody and mouse anti-Cdc2 antibody were from Santa Cruz Biotechnology; rabbit anti-tyrosine 15-phosphorylated Cdc2 antibody and horseradish peroxidase-labeled anti-mouse IgG antibody were from Cell Signaling Technology; sure blue reserve TMB peroxidase substrate was from Kirkegaard and Perry Laboratories. […]\nIn the method of using NCI-H1299 cells, the cells were suspended in RPMI1640 containing 10% FBS, and the cell suspension was applied to a 96-well Nunclondelta-processed plastic plate (bought from Nunc), in an amount of 2000 cells/100 μL/well, in which the cells were incubated overnight in 5% CO2-95% air at 37° C. […] Cdc2 was determined through ELISA as follows: A rabbit anti-Cdc2 antibody solution, which had been diluted 200-fold with 50 mM carbonate-bicarbonate buffer (pH 9.6), was applied to a 96-well maxisorpimmuno plate (bought from Nunc), in an amount of 50 μL/well, and statically kept overnight at 4° C. so as to fix the antibody on the plate. […]"}, "[2]": {"system": "Human non-small-cell lung cancer cells (NCI-H1299)", "experiment": "Radiation (X-ray) sensitizing effect, DNA fragmentation (subG1, FACS) in NCI-H1299 cells", "assay_type": "cell-based", "from_the_text": "Pharmaceutical Test 5 (Method of Determining Drug Potency with Cells (Radiation (X-Ray) Sensitizing Effect))\nFetal bovine serum (FBS) was gotten from Morgate; RPMI 1640 medium and 0.25% trypsin EDTA were from Invitrogen; cycle test plus DNA reagent kit was from Becton Dickinson; and nylon net filter was from Millipore.\nHuman non-small-cell lung cancer cells (NCI-H1299) were gotten from ATCC.\nNCI-H1299 cells were suspended in 10% FBS-added RPMI 1640 medium, and the cell suspension was applied to a 6-well Nunclondelta-processed plastic plate bought from Nunc, in an amount of 100,000 cell/2 ml/well, and incubated overnight in 5% CO2-95% air at 37° C. Using Softex's M-150WE, the cells were irradiated with 5000 R X-rays, and then further incubated in 5% CO2-95% air at 37° C. for 16 hours. A test compound was stepwise diluted with DMSO, and applied to a plate with the X-ray-processed cells sowed thereon, in an amount of 2 μL. This was incubated in 5% CO2-95% air at 37° C. for 8 hours, and then the culture was partly taken out. 0.25% trypsin was added to the cells remaining on the plate, in an amount of 600 μL, and statically kept at room temperature to prepare a single cell suspension. […] Using Becton Dickinson's FACS Calibur, the DNA amount in each cell was quantitatively determined according to a FACS process, and the ratio of the cells having caused DNA fragmentation was determined."}}, "data": [{"smiles": "C=CCn1c(=O)c2cnc(Nc3ccc(N4CCN(C)CC4)cc3)nc2n1-c1cccc(C(C)(C)O)n1", "note": "[Example 53, 2-allyl-1-[6-(1-hydroxy-1-methylethyl)pyridin-2-yl]-6-{[4-(4-methylpiperazin-1-yl)phenyl]amino}-1,2-dihydro-3H-pyrazolo[3,4-d]pyrimidin-3-one]", "values": [{"measurement": "EC50", "setting": "[1]", "value": 68, "unit": "nM"}, {"measurement": "DNA Fragmentation-Inducing Effect (H1299) (subG1, %)", "setting": "[2]; X-ray (5000 R, 16 hours before) + compound for 8 hours", "value": 54.8, "unit": "%"}, {"measurement": "DNA Fragmentation-Inducing Effect (H1299) (subG1, %)", "setting": "[2]; compound alone, without X-ray, 8 hours", "value": 3.9, "unit": "%"}]}]}
